Measurements published in publication PMC4753678 (Journal of medicinal chemistry, 2016).

Tests used:
[1] = biological target: T1, full-length human dCTPase protein (Homo sapiens, UniProt Q9H773); assay: HTS-adapted Malachite Green assay of dCTPase inhibition; assay type: biochemical; conditions: for decrease in potency: compared with compound 6
T1 sequence (Q9H773 1-170): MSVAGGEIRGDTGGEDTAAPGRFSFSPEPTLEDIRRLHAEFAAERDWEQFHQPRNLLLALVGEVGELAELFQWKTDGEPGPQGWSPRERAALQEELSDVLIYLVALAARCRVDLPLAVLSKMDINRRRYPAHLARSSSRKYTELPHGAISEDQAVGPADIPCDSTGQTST

DNA = DNA intercalation
[2] = mouse liver microsome stability; conditions: mouse liver microsomes
intracellular dCTPase = biological target: T2, intracellular dCTPase (Homo sapiens, UniProt Q9H773); assay: cellular thermal shift assay in HL60 cells; assay type: cell-based; conditions: 2 h incubation, heated at 67 °C
T2 sequence (Q9H773 1-170): T1 sequence (Q9H773 1-170)

[3] = system: base excision repair enzymes; assay: selectivity against base excision repair enzymes; assay type: biochemical
purified dCTPase enzyme = biological target: T3, purified dCTPase enzyme (Homo sapiens, UniProt Q9H773); assay: differential scanning fluorimetry assay; assay type: binding
T3 sequence (Q9H773 1-170): T1 sequence (Q9H773 1-170)

NTPases/NUDIX hydrolases = assay: selectivity panel of related NTPases/NUDIX hydrolases; assay type: biochemical
kinases = assay: selectivity against kinases; assay type: biochemical
[4] = human liver microsome stability; conditions: human liver microsomes
[5] = stability of a solution at room temperature under normal light; assay type: physicochemical; conditions: normal light conditions, five months
[6] = system: p-Chk1, γ-H2AX, 53BP1, cleaved caspase 3; assay: DNA replication stress and apoptosis markers; assay type: cell-based; conditions: at the concentrations and time points tested
dCTPase = biological target: T4, dCTPase (Homo sapiens, UniProt Q9H773); assay: jump dilution assay; assay type: biochemical; conditions: 10% of the IC50 concentration
T4 sequence (Q9H773 1-170): T1 sequence (Q9H773 1-170)

HL60 cells = assay: combination with cytidine analogues, cell death by flow cytometry; assay type: cell-based; conditions: 72 h, compound 18 2.5 μM, increasing concentrations of cytidine analogues
[7] = glutathione conjugation with metabolic activation in HLM; assay type: in vitro ADME, human; conditions: in the presence of metabolic activation system (in HLM)
plasma protein binding = assay type: in vitro ADME

## Cc1nc2cc(Cl)c(Cl)cc2n1Cc1ccc(B(O)O)cc1 [Compound 38, (4-((5,6-Dichloro-2-methyl-1H-benzo[d]imidazol-1-yl)methyl)-phenyl)boronic Acid]
[1]
  inhibition of dCTPase (in words): submicromolar activity

## COc1ccc(Cn2c(C)nc3c([N+](=O)[O-])cccc32)cc1 [Compound 12, 1-(4-Methoxybenzyl)-2-methyl-4-nitro-1H-benzo[d]imidazole]
[1]
  decrease in potency: approximately 25 fold

## COc1ccc(Cn2c(C)nc3c([N+](=O)[O-])c(Cl)c(Cl)cc32)cc1 [Compound 14, 5,6-Dichloro-1-(4-methoxybenzyl)-2-methyl-4-nitro-1H-benzo-[d]imidazole]
DNA
  DNA intercalation: did not intercalate DNA
[2]
  E MLM (extraction ratio): 0.88
Intracellular dCTPase
  intracellular dCTPase stabilization / target engagement: did not stabilize dCTPase
[3]
  selectivity over base excision repair enzymes: excellent selectivity
Purified dCTPase enzyme
  stabilization of the purified dCTPase enzyme: concentration-dependent stabilization
NTPases/NUDIX hydrolases
  selectivity across related NTPases/NUDIX hydrolases: excellent selectivity
kinases
  selectivity over kinases: excellent selectivity
[4]
  E HLM (extraction ratio): 0.59

## Cc1nc2c([N+](=O)[O-])c(F)c(F)cc2n1Cc1ccc(B(O)O)cc1 [Compound 39, (4-((5,6-Difluoro-2-methyl-4-nitro-1H-benzo[d]imidazol-1-yl)-methyl)phenyl)boronic Acid]
[1]
  inhibition of dCTPase (in words): submicromolar activity

## COc1ccc(Cn2cnc3cc(C)c(C)cc32)cc1 [Compound 8, 1-(4-Methoxybenzyl)-5,6-dimethyl-1H-benzo[d]imidazole]
[1]
  inhibition of dCTPase (in words): no inhibiton of dCTPase

## Cc1nc2c([N+](=O)[O-])c(Cl)c(Cl)cc2n1Cc1ccc(-n2cccn2)cc1 [Compound 27, 1-(4-(1H-Pyrazol-1-yl)benzyl)-5,6-dichloro-2-methyl-4-nitro-1H-benzo[d]imidazole]
[2]
  E MLM (extraction ratio): 0.73
[4]
  E HLM (extraction ratio): 0.61

## Cc1nc2c([N+](=O)[O-])c(Cl)c(Cl)cc2n1Cc1ccc(B(O)O)cc1 [Compound 18, (4-((5,6-Dichloro-2-methyl-4-nitro-1H-benzo[d]imidazol-1-yl)-methyl)phenyl)boronic Acid]
DNA
  DNA intercalation: did not intercalate DNA
[5]
  degradation of a solution: no signs of degradation
[6]
  DNA replication stress (p-Chk1, γ-H2AX, 53BP1) and cleaved caspase 3: did not increase DNA replication stress
dCTPase
  reversibility of dCTPase inhibition: reversible off-rate
[2]
  E MLM (extraction ratio): 0.24
Intracellular dCTPase
  intracellular dCTPase stabilization / target engagement: strong intracellular target engagement
[3]
  selectivity over base excision repair enzymes: excellent selectivity
Purified dCTPase enzyme
  stabilization of the purified dCTPase enzyme: concentration-dependent stabilization
HL60 cells
  cell death in combination with cytidine analogues: concentration-dependent increase in cell death
NTPases/NUDIX hydrolases
  selectivity across related NTPases/NUDIX hydrolases: excellent selectivity
[7]
  conjugation with glutathione (GSH): did not conjugate
kinases
  selectivity over kinases: excellent selectivity
[4]
  E HLM (extraction ratio): 0.38

## Cc1n[nH]c(C)c1CCn1c(C)nc2c([N+](=O)[O-])c(Cl)c(Cl)cc21 [Compound 25, 5,6-Dichloro-1-(2-(3,5-dimethyl-1H-pyrazol-4-yl)ethyl)-2-methyl-4-nitro-1H-benzo[d]imidazole]
[2]
  E MLM (extraction ratio): 0.89
[4]
  E HLM (extraction ratio): 0.83

## COc1ccc(Cn2c(C)nc3ccccc32)cc1 [Compound 9, 1-(4-Methoxybenzyl)-2-methyl-1H-benzo[d]imidazole]
[1]
  inhibition of dCTPase (in words): no inhibition of dCTPase

## COc1ccc(Cn2cnc3ccccc32)cc1 [Compound 7, 1-(4-Methoxybenzyl)-1H-benzo[d]imidazole]
[1]
  inhibition of dCTPase (in words): no inhibiton of dCTPase

## Cc1nc2c([N+](=O)[O-])c(Cl)c(Cl)cc2n1Cc1ccc(B2OC(=O)CN(C)CC(=O)O2)cc1 [Compound 30, 2-(4-((5,6-Dichloro-2-methyl-4-nitro-1H-benzo[d]-imidazol-1-yl)methyl)phenyl)-6-methyl-1,3,6,2-dioxazaborocane-4,8-dione]
[2]
  E MLM (extraction ratio): 0.36
Plasma protein binding
  fraction unbound: 0.008
[7]
  conjugation with glutathione (GSH): did not conjugate

## COc1ccc(Cn2c(C)nc3cc(C)c(C)cc32)cc1 [Compound 10, 1-(4-Methoxybenzyl)-2,5,6-trimethyl-1H-benzo[d]imidazole]
[1]
  decrease in potency: 400 fold

## O=[N+]([O-])c1c(Cl)c(Cl)cc2c1nc(C1CC1)n2Cc1ccc(B(O)O)cc1 [Compound 36, (4-((5,6-Dichloro-2-cyclopropyl-4-nitro-1H-benzo[d]imidazol-1-yl)methyl)phenyl)boronic Acid]
dCTPase
  reversibility of dCTPase inhibition: reversible off-rate
[2]
  E MLM (extraction ratio): 0.83
[4]
  E HLM (extraction ratio): 0.14
